The results in this text go back to publication PMC6149849, “Cymantrenyl-Nucleobases: Synthesis, Anticancer, Antitrypanosomal and Antimicrobial Activity Studies” (Molecules : A Journal of Synthetic Chemistry and Natural …, 2017).

Where two headings read alike, the source gives them in different places. Some results are limits rather than exact numbers.

The test system of series [1] is MCF-7/DX (estrogen-responsive breast adenocarcinoma resistant to doxorubicin). The experiment in a line: cells. It counts as cell-based, human.
Protocol: (§3) The cytotoxicity of cymantrene derivatives was evaluated by the MTT microplate methods as described elsewhere [67] by incubating the cells with increasing concentrations of tested compounds for 24 h. Briefly, 0.1 mL of logarithmically growing cells were seeded in a 96-well microplate (5 × 10^4 cells/well) a day before the experiments and after 24 h of culture, tested compounds, dissolved in DMSO, and diluted in culture medium, were added. […] After further incubation for 24 h, the medium was replaced with fresh medium and the cells were allowed to grow for additional 48 h. Then, the medium was aspirated and 0.05 mL of MTT (final concentration of 5 mg/mL medium) added to each well, and the cells were incubated for further 4 h. The absorbance of the product, resulting from the MTT reduction, was read with a microplate reader at 545 nm. The percentage of viable cells was calculated by comparing the absorbance of treated cells with that of the untreated control cells (taken as 100%). The IC50 concentration of each compound was calculated from the cell survival curves using GraphPad Prism 4.02 software for Windows (GraphPad Software, San Diego, CA, USA).
The subject of series [2] is MDA-MB-231 (triple negative breast adenocarcinoma). In words: MTT cytotoxicity assay, MDA-MB-231. It counts as cell-based, human. For orientation: Tetrazolium dyes change colour on reduction, which living cells bring about.
Protocol: Anticancer activity of cymantrenes was determined using a panel of human cancer cell lines that were derived from solid tumors. […] The inhibitory effect of cymantrene derivatives on cell proliferation and growth was determined based on survival curves and was expressed as IC50 values (concentration required to achieve a 50% decrease in cell viability when compared to the viability of untreated control cells) calculated using GraphPad Prism 4.02 software for Windows (GraphPad Software, San Diego, CA, USA). Cell viability was determined by the MTT microplate spectrophotometric cytotoxicity test.
as §3
The subject of series [3] is SKOV-3 cells. The experiment in a line: Autophagy (acidic vesicular organelles, AVOs), acridine orange staining. It counts as cell-based, human. As to conditions: SKOV-3, IC50 concentrations 24 h, then 0, 24 or 48 h drug-free. As to the method:
(§1) To determine the mode of cell death that was triggered by cymantrene derivatives, appropriately stained SKOV-3 cells were evaluated for morphological changes using fluorescence microscopy. For evaluation of apoptosis and autophagy, cells were stained with Hoechst 33258/propidium iodide to distinguish between live, apoptotic and necrotic cells and reveal condensed chromatin and apoptotic bodies (a hallmark of apoptosis), and with acridine orange to detect the development of acidic vesicular organelles (AVOs—a hallmark of autophagy).
(§2) One day prior to the experiments, cells were seeded at the appropriate density into 35 mm diameter dishes. […] At the end of incubation, the medium was aspirated, the cell monolayer was washed twice with pre-warmed PBS, and fresh medium was added. The cells were cultured in drug-free medium for an additional 24 or 48 h to enable them to recover after the exposure to the compounds and to repair any induced damages.
The ability of tested compounds to induce autophagosome formation inside cells (the process associated with the induction of autophagy) was evaluated by microscopic examination of the morphology of cells stained with acridine orange (AO).

Series [4] in a line: Determination of log Po/w by chromatographic (RP-HPLC) method, Soczewiński–Wachtmeister relationship. As to conditions: water/methanol, C18, 20 °C.
Protocol: In this study, a chromatographic method and the Soczewiński–Wachtmeister relationship were used in order to determine the lipophilicity of the compounds [38, 39, 40, 41]
For the determination of log Po/w values, the newly synthesized compounds were analyzed by an Agilent 1200 system (Agilent Technologies, Santa Clara, CA, USA) equipped with a Zorbax Eclipse XDB column (C18, 250 × 4.6 mm, Agilent Technologies) and controlled by the software ChemStation Data Analysis. The separation was isocratic, and water/methanol (HPLC gradient grade, Sigma-Aldrich, St. Louis, MO, USA) mixtures containing 0.50, 0.55, 0.60, 0.65, 0.70, 0.75, 0.80, 0.85, 0.90 and 0.95 volume fractions of organic modifier were used as the mobile phase. The flow rate was 1.0 mL/min for the 7 and 2 and 0.8 mL/min for other compounds. The chromatographic peaks of test compounds were detected by UV absorbance at 230 nm. The column temperature was kept at 20 °C. The dead-time values were measured from the effluent peaks. All of the runs were performed in triplicate, and the resulting average values were used for the calculation of the retention factors.
For series [5], the system named is SKOV-3 cells. In words: Apoptotic/necrotic cell death, Hoechst 33258/propidium iodide staining, fluorescence microscopy. Type of series: cell-based, human. As to conditions: for increase of apoptotic cells compared to untreated control cells: SKOV-3, 24 h treatment with IC50 concentrations, post-treatment 24 and 48 h; for apoptotic cell fraction predominantly increased: SKOV-3, IC50 concentrations. The protocol: as §1, §2
Quantitative analysis of morphological changes that are associated with apoptosis, necrosis, and autophagy were assessed using a fluorescence microscope (Olympus IX70, Tokyo, Japan) at 400× magnification, as described elsewhere. At the indicated time points, cells were washed with PBS, trypsinized, and centrifuged at 1000 rpm (fixed angle rotor, 72× g) for 5 min at 37 °C. The supernatant was removed and the cell pellet (100 µL) was transferred to the Eppendorf tube, mixed with Ho33258 (2 µL, 0.13 mM) and PI (2 µL, 0.23 mM), and incubated for 5 min in the dark at room temperature. At least 300 stained cells were counted in triplicate in each of the three independent experiments. Cells were classified as live, apoptotic, or necrotic on the basis of their morphological and staining characteristics, and each fraction was related to the total cell number.

For series [6], the system named is A549 (non-small cell lung carcinoma). The experiment in a line: MTT cytotoxicity assay, A549. As to the method:
Anticancer activity of cymantrenes was determined using a panel of human cancer cell lines that were derived from solid tumors. These included cell lines of estrogen-responsive, doxorubicin resistant, and triple negative breast adenocarcinomas (MCF-7, MCF-7/DX, and MDA-MB-231), ovarian adenocarcinoma (SKOV-3), non-small cell lung carcinoma (A549), hepatocellular carcinoma (HepG2), and glioblastoma (U-87 MG). The inhibitory effect of cymantrene derivatives on cell proliferation and growth was determined based on survival curves and was expressed as IC50 values (concentration required to achieve a 50% decrease in cell viability when compared to the viability of untreated control cells) calculated using GraphPad Prism 4.02 software for Windows (GraphPad Software, San Diego, CA, USA). Cell viability was determined by the MTT microplate spectrophotometric cytotoxicity test.
Anticancer activity of cymantrene derivetives were determined on the basis of their cytotoxic effects on a panel of human cancer cells, as derived from different types of solid tumors: estrogen responsive breast adenocarcinoma (MCF-7), triple negative breast adenocarcinoma (MDA-MB-231), ovarian adenocarcinoma (SKOV-3), non-small cell lung carcinoma (A549), hepatocellular carcinoma (HepG2), and glioblastoma (U-87 MG). Additionally, doxorubicin resistant breast adenocarcinoma cells (MCF-7/Dox) were also included for comparison. All of the cell lines were purchased from American Type Culture Collection (ATCC, Rockville, MD, USA), except the MCF-7/dox cell line, which was a generous gift from Professor Malgorzata Latocha from the Department of Cell Biology, Medical University of Silesia in Katowice, Poland.
Cells were grown as a monolayer in DMEM growth medium, supplemented with 10% FBS, penicillin (10 U/mL) and streptomycin (50 μg/mL), under standard conditions (37 °C, 5% CO2 and 95% air, 100% humidity) and periodically checked for Mycoplasma contamination.
The cytotoxicity of cymantrene derivatives was evaluated by the MTT microplate methods as described elsewhere by incubating the cells with increasing concentrations of tested compounds for 24 h. Briefly, 0.1 mL of logarithmically growing cells were seeded in a 96-well microplate (5 × 10^4 cells/well) a day before the experiments and after 24 h of culture, tested compounds, dissolved in DMSO, and diluted in culture medium, were added. […] After further incubation for 24 h, the medium was replaced with fresh medium and the cells were allowed to grow for additional 48 h. Then, the medium was aspirated and 0.05 mL of MTT (final concentration of […] medium) added to each well, and the cells were incubated for further 4 h. The absorbance of the product, resulting from the MTT reduction, was read with a microplate reader at 545 nm. The percentage of viable cells was calculated by comparing the absorbance of treated cells with that of the untreated control cells (taken as 100%). The IC50 concentration of each compound was calculated from the cell survival curves using GraphPad Prism 4.02 software for Windows (GraphPad Software, San Diego, CA, USA).

Setting [7] is: 24 h incubation, MTT, means ± SEM, read-out: cytotoxicity IC50, MCF-7/DX.
The mark [8] stands for this setting: 24 h incubation, MTT, means ± SEM, read-out: cytotoxicity IC50, MDA-MB-231.
Where [9] appears, read: read-out: cytotoxicity IC50, A549, 24 h incubation, MTT, means ± SEM.

For `O=c1[nH]c(=O)n(CCC(O)[C]23[CH]4[CH]5[CH]6[CH]2[Mn]5643[P](c2ccccc2)(c2ccccc2)c2ccccc2)cc1F.[C-]#[O+].[C-]#[O+]` (racemic) [Compound 3], the IC50 amounted to 39.9 ± 1.41 µM in series [1] (setting [7]), 35.7 ± 1.44 µM in series [2] (setting [8]) and 20.4 ± 1.09 µM in series [6] (setting [9]). For the same compound, in the series on SKOV-3 cells [3], the “induction of autophagy (cells containing AVOs)” value (from here on “induction of autophagy”) was “very little autophagic activity”. Besides, the “Log Po/w” value in series [4] is recorded as 5.2. The “increase of apoptotic cells compared to untreated control cells” value (from here on “increase of apoptotic cells”) in the series with SKOV-3 cells [5] was “only a three-fold increase”. Moreover, the mitotic cell death entry in the series on SKOV-3 cells [5] (SKOV-3, morphology) is listed as “induced extensive mitotic cell death”.

With `COC(CCn1cc(F)c(=O)n(C)c1=O)[C]12[CH]3[CH]4[CH]5[CH]1[Mn]4532.[C-]#[O+].[C-]#[O+].[C-]#[O+]` (racemic) [Compound 4], the IC50 in series [2] and in series [6] was more than 150 µM in each case. Moreover, the “induction of autophagy” value in the series on SKOV-3 cells [3] was “Less induction of autophagy”. The “increase of apoptotic cells” value in the series on SKOV-3 cells [5] is reported as “only a three-fold increase”.

As to `Nc1ncnc2c1ncn2CCC(O)[C]12[CH]3[CH]4[CH]5[CH]1[Mn]4532[P](c1ccccc1)(c1ccccc1)c1ccccc1.[C-]#[O+].[C-]#[O+]` (racemic) [Compound 5], in series [2] (setting [8]), the IC50 is 56 ± 2.07 µM. Besides, the “induction of autophagy” value in the series with SKOV-3 cells [3] was “Less induction of autophagy”. In addition, in series [4], the “Log Po/w” value is 4.8. In the series with SKOV-3 cells [5], the “increase of apoptotic cells” value was determined as 9 fold and the “apoptotic cell fraction predominantly increased” value is reported as “early apoptotic cells”. Also, the IC50 in series [6] (setting [9]) amounted to 23.7 ± 0.86 µM.

For the compound `COC(CCn1cnc2c(N(C)C)ncnc21)[C]12[CH]3[CH]4[CH]5[CH]1[Mn]4532.[C-]#[O+].[C-]#[O+].[C-]#[O+]` (racemic) [Compound 6], the IC50 is more than 150 µM in series [2] and 102 ± 1.08 µM in series [6]. Besides, the “induction of autophagy” value with SKOV-3 cells [3] is reported as “greatest autophagic changes”. The “increase of apoptotic cells” value with SKOV-3 cells [5] is 6 fold.

With `Nc1ncnc2c1ncn2CCC(O)[C]12[CH]3[CH]4[CH]5[CH]1[Mn]45321[P](c2ccccc2)(c2ccccc2)CC[P]1(c1ccccc1)c1ccccc1.[C-]#[O+]` (racemic) [Compound C], in series [2], the IC50 worked out at 43.1 ± 1.95 µM. In addition, in the series with SKOV-3 cells [3], the “induction of autophagy” value was “greatest autophagic changes”. For the same compound, in the series on SKOV-3 cells [5], the “increase of apoptotic cells” value was determined as 9 fold and the “apoptotic cell fraction predominantly increased” value was “early apoptotic cells”. For the same compound, the IC50 in series [6] worked out at 16.5 ± 0.82 µM.

For `O=C(CCn1cc(F)c(=O)[nH]c1=O)[C]12[CH]3[CH]4[CH]5[CH]1[Mn]4532.[C-]#[O+].[C-]#[O+].[C-]#[O+]` (centres unmarked) [Compound 1], the IC50 in series [1] is 137 ± 3.41 µM; in series [2], 27.9 ± 1.11 µM; in series [6] it was 25.1 ± 1.25 µM. In the series with SKOV-3 cells [3], the “induction of autophagy” value is reported as “Less induction of autophagy”. Further, in the series on SKOV-3 cells [5], the “increase of apoptotic cells” value was found to be 6 fold.

Consider `CCC(=O)[C]12[CH]3[CH]4[CH]5[CH]1[Mn]4532.[C-]#[O+].[C-]#[O+].[C-]#[O+]` (centres unmarked) [Compound 7, propionylocymantrene], for which, in series [2], the IC50 is 63 ± 1.32 µM. For the same compound, the “induction of autophagy” value in the series with SKOV-3 cells [3] was “greatest autophagic changes”. Besides, in the series with SKOV-3 cells [5], the “increase of apoptotic cells” value was 9 fold and the “apoptotic cell fraction predominantly increased” value is listed as “late-apoptotic cell fraction”. Also, the IC50 in series [6] worked out at 30.6 ± 1.35 µM.

Take `O=[C]=[Mn](=[C]=O)(=[C]=O)[CH]1C=CC=C1` [CymH, tricarbonyl(η^5-cyclopentadienyl)manganese, reference compound]: the IC50 in series [1] (setting [7]) turned out to be 144 ± 2.24 µM; in series [2] (setting [8]), 68.6 ± 1.74 µM; in series [6] (setting [9]) it was 87 ± 1.35 µM. Besides, the “induction of autophagy” value in the series with SKOV-3 cells [3] is reported as “greatest autophagic changes”. Moreover, the “Log Po/w” value in series [4] was 3.5.
